Source: patent US20060093553A1, “Cd26-based therapies for cancers and immune disease” (priority 2002, published 2006)

What was measured:
[1] = system: 340-4 mutant CD26-positive/DPPIV-positive Jurkat transfectant; experiment: Cell cycle analysis (propidium iodide staining); format: cell-based, Human; conditions: 24 h, 340-4 transfectant
[2] = system: nontransfected control (parental) Jurkat cells; experiment: Cell cycle analysis (propidium iodide staining); conditions: 24 h; for % G0/G1 / % G2/M / % S: Parental Jurkat; for Percentage G0G1 / Percentage G2/M / Percentage S: Control Jurkat
[3] = system: wild-type CD26-transfected Jurkat cell lines (wtCD26); experiment: Cell cycle analysis (propidium iodide staining); conditions: 24 h; for % G0/G1 / % G2/M / % S: wtCD26 transfectant; for Percentage G0G1 / Percentage G2/M / Percentage S: WtCD26 transfectant
[4] = system: S630A Jurkat transfectants; experiment: MTT uptake (cell growth) assay; format: cell-based, Human
Protocol: (§1) Cell growth assay was performed as described previously (Hansen et al., 1989). Cells were incubated in microplates in the presence of culture media alone, culture media and […] (50 μg/ml), culture media and doxorubicin at the indicated concentrations, or culture media, […]), and doxorubicin at the indicated concentrations, for a total volume of 100 μl (50,000 cells/well). After 48 h of incubation at 37° C., 25 μl of MTT was added to the wells at a final concentration of 1 mg/ml. The microplates were then incubated for 2 h at 37° C., followed by the addition of 100 μl of extraction buffer. After overnight incubation at 37° C., A570/nm measurements at 570 nm were performed, with the SE of the triplicate wells being less than 15%. MTT Assay. Cell growth assay was performed as described previously (Aytac et al., 2001). […] Following 36-48 h of incubation at 37° C., 25 ul of MET was added to the wells at a final concentration of 1 mg/ml. The microplates were then incubated for 2 h at 37° C., followed by the addition of 100 ul of extraction buffer. Following overnight incubation at 37° C., OD measurements at 570 nm were performed, with the standard errors of the mean of the triplicate wells being less than 15%. Cytotoxicity index was calculated as follows: [formula]

[5] = system: wtCD26 Jurkat transfectants; experiment: MTT uptake (cell growth) assay; format: cell-based, Human
Protocol: as §1

[6] = system: 340-4 Jurkat transfectants; experiment: MTT uptake (cell growth) assay; format: cell-based, Human; conditions: 340-4 transfectants, similar to wtCD26; 48 h; FIG. 1
[7] = system: wtCD26 Jurkat transfectants; experiment: Annexin V/PI apoptosis assay; format: cell-based, Human
Protocol: (§2) Annexin/PI Assays. Exposure of phosphatidylserine residues was quantified by surface annexin V staining as previously described (Vermes et al., 1995; […] and Pollard, 1994; Martin et al., 1995)). Briefly, cells were washed in binding buffer (10 mM HEPES, pH 7.4, 2.5 mM CaCl2, 140 mM NaCl), resuspended in 100 μl and incubated with 0.5 μl/ml annexin V-fluoresencein isothiocyanate (FITC) and 2.5 μg/ml propiodium iodide (PI) for 15 minutes in the dark. Cells were then washed again and resuspended in 400 μl of binding buffer, then flow cytometric analysis (FACScan; Becton Dickinson) was performed. Ten thousand cells were acquired per sample using Cellquest software and data were analyzed with the Paint-a-gate software (Becton Dickinson).

[8] = system: 340-4 Jurkat transfectants; experiment: Annexin V/PI apoptosis assay; format: cell-based, Human
Protocol: as §2

[9] = system: S630A mutant CD26-positive/DPPIV-negative Jurkat transfectant; experiment: Cell cycle analysis (propidium iodide staining); conditions: 24 h
M6P/IGF-IIR on monocytes = biological target: T1, M6P/IGF-IIR on monocytes (Homo sapiens, UniProt P11717); experiment: Inhibition of sCD26 uptake into monocytes by M6P (FACS); format: cell-based; conditions: M6P 0, 0.1, 1.0, and 10 μM; concentration dependent; with or without TT; FIGS. 11A, 11B
T1 construct: endogenous in cells; host or cells: purified peripheral blood monocytes
T1 sequence (P11717 41-2491): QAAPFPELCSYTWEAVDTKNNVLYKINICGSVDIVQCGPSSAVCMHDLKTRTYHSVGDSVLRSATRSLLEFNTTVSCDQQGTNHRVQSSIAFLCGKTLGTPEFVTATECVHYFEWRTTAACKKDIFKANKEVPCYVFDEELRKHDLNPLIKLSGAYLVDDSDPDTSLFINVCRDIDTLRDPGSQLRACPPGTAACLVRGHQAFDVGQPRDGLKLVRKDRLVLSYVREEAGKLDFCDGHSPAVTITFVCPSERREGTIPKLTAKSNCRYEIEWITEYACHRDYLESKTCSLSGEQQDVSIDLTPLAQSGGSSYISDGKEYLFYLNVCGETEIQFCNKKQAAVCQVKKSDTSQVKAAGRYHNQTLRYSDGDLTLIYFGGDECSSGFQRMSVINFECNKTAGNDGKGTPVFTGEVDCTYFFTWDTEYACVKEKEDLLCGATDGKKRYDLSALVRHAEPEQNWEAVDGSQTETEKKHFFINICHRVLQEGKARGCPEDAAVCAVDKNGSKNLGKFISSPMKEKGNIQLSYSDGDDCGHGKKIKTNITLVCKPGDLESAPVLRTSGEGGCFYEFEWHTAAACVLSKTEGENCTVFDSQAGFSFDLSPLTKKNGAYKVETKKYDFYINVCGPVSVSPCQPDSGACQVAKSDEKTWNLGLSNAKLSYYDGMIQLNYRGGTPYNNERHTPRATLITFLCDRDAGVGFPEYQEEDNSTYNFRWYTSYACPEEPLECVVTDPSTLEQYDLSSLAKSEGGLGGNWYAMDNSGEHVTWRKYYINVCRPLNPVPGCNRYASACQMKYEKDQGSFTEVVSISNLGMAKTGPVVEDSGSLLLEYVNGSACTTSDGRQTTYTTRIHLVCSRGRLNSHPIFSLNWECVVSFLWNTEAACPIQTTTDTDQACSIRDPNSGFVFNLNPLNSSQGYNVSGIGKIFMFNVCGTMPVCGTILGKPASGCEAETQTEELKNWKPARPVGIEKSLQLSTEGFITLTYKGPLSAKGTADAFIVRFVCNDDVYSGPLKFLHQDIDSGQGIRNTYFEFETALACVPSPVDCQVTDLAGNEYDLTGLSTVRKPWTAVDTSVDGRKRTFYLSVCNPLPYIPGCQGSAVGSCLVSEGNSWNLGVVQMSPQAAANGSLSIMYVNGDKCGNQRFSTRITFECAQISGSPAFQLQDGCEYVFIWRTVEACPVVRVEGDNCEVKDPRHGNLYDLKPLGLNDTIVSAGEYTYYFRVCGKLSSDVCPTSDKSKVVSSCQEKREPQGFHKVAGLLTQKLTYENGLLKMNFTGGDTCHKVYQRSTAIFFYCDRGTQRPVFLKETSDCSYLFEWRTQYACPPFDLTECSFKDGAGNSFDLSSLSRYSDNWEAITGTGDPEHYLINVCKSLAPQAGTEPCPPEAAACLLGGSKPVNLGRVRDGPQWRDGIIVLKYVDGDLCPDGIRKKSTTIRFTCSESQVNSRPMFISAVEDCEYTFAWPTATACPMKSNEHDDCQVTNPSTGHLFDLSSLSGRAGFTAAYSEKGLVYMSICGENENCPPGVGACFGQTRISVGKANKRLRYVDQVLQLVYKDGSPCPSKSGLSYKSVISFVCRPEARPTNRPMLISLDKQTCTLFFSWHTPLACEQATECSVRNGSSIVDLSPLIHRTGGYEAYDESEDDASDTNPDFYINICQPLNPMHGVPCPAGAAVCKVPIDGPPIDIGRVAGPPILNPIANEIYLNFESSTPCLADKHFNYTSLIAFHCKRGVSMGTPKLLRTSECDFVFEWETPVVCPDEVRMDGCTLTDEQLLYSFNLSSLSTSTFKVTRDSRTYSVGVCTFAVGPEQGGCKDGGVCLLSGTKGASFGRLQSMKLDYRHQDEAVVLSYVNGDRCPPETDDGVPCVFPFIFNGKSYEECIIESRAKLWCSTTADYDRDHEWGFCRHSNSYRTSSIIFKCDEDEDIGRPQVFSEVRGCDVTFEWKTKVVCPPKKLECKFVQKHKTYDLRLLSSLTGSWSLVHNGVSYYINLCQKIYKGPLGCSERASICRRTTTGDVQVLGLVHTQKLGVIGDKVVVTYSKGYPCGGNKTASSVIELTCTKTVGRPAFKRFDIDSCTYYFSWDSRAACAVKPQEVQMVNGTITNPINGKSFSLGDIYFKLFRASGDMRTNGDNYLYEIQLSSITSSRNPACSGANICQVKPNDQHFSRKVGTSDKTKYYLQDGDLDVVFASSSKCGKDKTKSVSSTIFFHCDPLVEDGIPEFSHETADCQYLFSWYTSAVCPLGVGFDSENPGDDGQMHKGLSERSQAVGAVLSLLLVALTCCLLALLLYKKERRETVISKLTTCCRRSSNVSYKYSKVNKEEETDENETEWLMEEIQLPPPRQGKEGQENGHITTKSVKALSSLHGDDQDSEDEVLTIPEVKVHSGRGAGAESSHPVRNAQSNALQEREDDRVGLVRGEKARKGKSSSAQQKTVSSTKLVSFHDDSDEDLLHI
Protocol: In studies assessing the expression of CD80, CD86, and HLA-DR on purified monocytes (0.5×10^6 monocytes/well), monocytes were preincubated with or without TT (0.5 μg/ml) for 16 h. Following incubation with sCD26 (0.5 μg/ml) for 24 h, FITC-conjugated CD80, CD86, and HLA-DR mAbs (10 μg/ml) were used with PE-conjugated anti-CD14 (10 μg/ml) to gate exclusively on the monocyte population. In experiments assessing the effect of M6P on cellular uptake of sCD26, purified monocytes (0.5×10^6 monocytes/well) were incubated with the appropriate concentration of M6P in the presence or absence of sCD26-OG for 24 h in standard medium. Cells were then washed twice in ice-cold PBS, followed by incubation for 2 min in acidic PBS (pH 3.0) to strip any sCD26-OG attached to the cell surface. Cells were washed in ice-cold PBS and were incubated with mouse Ig isotypes (1 μg/ml) to block nonspecific binding; this was followed by reaction with PE-conjugated anti-CD14 (10 μg/ml) to gate exclusively on monocyte population.

[10] = system: wtCD26 Jurkat transfectant; experiment: Immunoblotting of etoposide-induced apoptosis markers after z-LEHD-fmk preincubation; format: cell-based, Human
Protocol: SDS-PAGE and Immunoblotting. After incubation at 37° C. in culture media and etoposide or doxorubicin at the concentrations and duration indicated, cells were harvested from wells, washed with PBS, and lysed in lysis buffer consisting of 1% NP-40, 0.5% deotxycolate, 0.1% SDS, 1 mM phenyhmethylsulfonyl fluoride, 1 mM benzamidine, 10 μg/ml aprotinin, 50 μg/ml leupeptin, 10 μg/ml soybean trypsin inhibitor and 1 μg/ml pepstatin. After incubating on ice for 5 min, nuclei were removed by centrifugation and supernatants were collected as whole cell lysates. Sample buffer (4×) consisting of 20% glycerol, 4.6% SDS, 0.5 M Tris (pH 6.8), 4% β-mercaptoethanol, and 0.2% bromophenol blue was added to the appropriate aliquots of supernatants. After boiling, protein samples were submitted to SDS-PAGE analysis on an 8% gel under standard conditions using a mini-Protean II system (Bio-Rad). For immunoblotting, the proteins were transferred onto nitrocellulobse (Immobilon-P; Millipore). After overnight. blocking at 4° C. in blocking solution consisting of 0.1% Tween 20 and 5% BSA in Tris-buffered saline, membranes were blotted with the appropriate primary antibodies diluted in blocking solution for 1 hour at room temperature. Membranes were then washed with blocking solution, and appropriate secondary antibodies diluted in blocking solution were then applied for 1 hour at room temperature. Secondary antibodies were goat antimouse or goat antirabbit horseradish peroxidase conjugates (Dako). Membranes were then washed with blocking solution, and proteins were subsequently detected by chemiluininescence (Amersham Pharmacia Biotech).

[11] = AIM V serum-free media, Doxorubicin 0.10 uM
[12] = AIM V serum-free media, Doxorubicin 0.25 uM
[13] = Doxorubicin 0.01 μM, S63A transfectant
[14] = Doxorubicin 0.05 μM, S630A transfectant
[15] = AIM V serum-free media, Etoposide 0.25 uM
[16] = AIM V serum-free media, Etoposide 0.50 uM
[17] = Etoposide 0.10 uM, S630A transfectant
[18] = Etoposide 0.25 uM, S630A transfectant
[19] = 2 hours preincubation with z-LEHD-fmk, then 3 μM etoposide 48 hours, FIG. 22B

Molecule: COc1cccc2c1C(=O)c1c(O)c3c(c(O)c1C2=O)C[C@@](O)(C(=O)CO)C[C@@H]3O[C@H]1C[C@H](N)[C@H](O)[C@H](C)O1 [Doxorubicin]
- Percentage G0G1 ([1]; Doxorubicin 0.01 μM): 25%
- Percentage G2/M ([1]; Doxorubicin 0.01 μM): 50%
- Percentage S ([1]; Doxorubicin 0.01 μM): 25%
- Percentage G0G1 ([1]; Doxorubicin 0.05 μM): 11%
- Percentage G2/M ([1]; Doxorubicin 0.05 μM): 78%
- Percentage S ([1]; Doxorubicin 0.05 μM): 11%
- % G0/G1 [2, 11]: 43%
- % G2/M [2, 11]: 27%
- % S [2, 11]: 30%
- % G0/G1 [2, 12]: 36%
- % G2/M [2, 12]: 41%
- % S [2, 12]: 23%
- Percentage G0G1 ([2]; Doxorubicin 0.01 μM): 40%
- Percentage G2/M ([2]; Doxorubicin 0.01 μM): 34%
- Percentage S ([2]; Doxorubicin 0.01 μM): 26%
- Percentage G0G1 ([2]; Doxorubicin 0.05 μM): 32%
- Percentage G2/M ([2]; Doxorubicin 0.05 μM): 37%
- Percentage S ([2]; Doxorubicin 0.05 μM): 31%
- % G0/G1 [3, 11]: 31%
- % G2/M [3, 11]: 49%
- % S [3, 11]: 20%
- % G0/G1 [3, 12]: 14%
- % G2/M [3, 12]: 74%
- % S [3, 12]: 12%
- Percentage G0G1 ([3]; Doxorubicin 0.01 μM): 11%
- Percentage G2/M ([3]; Doxorubicin 0.01 μM): 62%
- Percentage S ([3]; Doxorubicin 0.01 μM): 27%
- Percentage G0G1 ([3]; Doxorubicin 0.05 μM): 6%
- Percentage G2/M ([3]; Doxorubicin 0.05 μM): 69%
- Percentage S ([3]; Doxorubicin 0.05 μM): 25%
- doxorubicin-mediated growth inhibition (MTT), sensitivity ([4]; S630A transfectants, 48 h, FIG. 1): less sensitive
- doxorubicin-mediated growth inhibition (MTT), sensitivity ([5]; wtCD26 compared with parental (control) or vector only (neo) Jurkat cells, 48 h, FIG. 1): markedly increased sensitivity
- doxorubicin-mediated growth inhibition (MTT), sensitivity [6]: greater doxorubicin sensitivity
- doxorubicin-induced apoptosis (Annexin V/PI) ([7]; wtCD26 compared with parental or S630A Jurkat, 16 hours, FIG. 15B): greater apoptosis
- doxorubicin-induced apoptosis (Annexin V/PI) ([8]; 340-4 compared with parental or S630A Jurkat, 16 hours, FIG. 15B): greater apoptosis
- Percentage G0G1 [9, 13]: 33%
- Percentage G2/M [9, 13]: 35%
- Percentage S [9, 13]: 32%
- Percentage G0G1 [9, 14]: 27%
- Percentage G2/M [9, 14]: 38%
- Percentage S [9, 14]: 35%

Molecule: COc1cc([C@@H]2c3cc4c(cc3[C@@H](O[C@@H]3O[C@@H]5CO[C@@H](C)O[C@H]5[C@H](O)[C@H]3O)[C@H]3COC(=O)[C@H]23)OCO4)cc(OC)c1O [Etoposide]
- % G0/G1 [2, 15]: 51%
- % G2/M [2, 15]: 19%
- % S [2, 15]: 30%
- % G0/G1 [2, 16]: 36%
- % G2/M [2, 16]: 36%
- % S [2, 16]: 28%
- % G0/G1 ([2]; Etoposide 0.10 uM): 41%
- % G2/M ([2]; Etoposide 0.10 uM): 21%
- % S ([2]; Etoposide 0.10 uM): 38%
- % G0/G1 ([2]; Etoposide 0.25 uM): 27%
- % G2/M ([2]; Etoposide 0.25 uM): 41%
- % S ([2]; Etoposide 0.25 uM): 32%
- % G0/G1 [3, 15]: 34%
- % G2/M [3, 15]: 43%
- % S [3, 15]: 23%
- % G0/G1 [3, 16]: 18%
- % G2/M [3, 16]: 64%
- % S [3, 16]: 18%
- % G0/G1 ([3]; Etoposide 0.10 uM): 25%
- % G2/M ([3]; Etoposide 0.10 uM): 56%
- % S ([3]; Etoposide 0.10 uM): 19%
- % G0/G1 ([3]; Etoposide 0.25 uM): 12%
- % G2/M ([3]; Etoposide 0.25 uM): 69%
- % S ([3]; Etoposide 0.25 uM): 19%
- etoposide-mediated growth inhibition (MTT), sensitivity ([4]; S630A compared to wtCD26 transfectants, FIG. 5): less sensitive
- etoposide-mediated growth inhibition (MTT), sensitivity ([5]; wtCD26 compared to parental cells, FIG. 5): significantly increased sensitivity
- etoposide-induced apoptosis (Annexin V/PI) ([7]; wtCD26 vs S630A or parental control Jurkat, 14 hours, FIG. 15A): more sensitive to the apoptotic effect
- etoposide-induced apoptosis (Annexin V/PI) ([8]; 340-4 transfectants, similar to wtCD26, 14 hours, FIG. 15A): higher level of drug-induced apoptosis
- % G0/G1 [9, 17]: 34%
- % G2/M [9, 17]: 29%
- % S [9, 17]: 37%
- % G0/G1 [9, 18]: 22%
- % G2/M [9, 18]: 48%
- % S [9, 18]: 30%

Molecule: O=P(O)(O)OC[C@H]1OC(O)[C@@H](O)[C@@H](O)[C@@H]1O (some centres unmarked) [M6P]
- uptake of sCD26 into monocytes (M6P/IGF-IIR on monocytes): inhibited the uptake of sCD26 into monocytes

Molecule: z-LEHD-fmk
- etoposide-mediated cleavage of pro-caspase-9 ([10]; 2 hours preincubation with z-LEHD-fmk at varying doses, then 3 μM etoposide 16 hours, FIG. 18): inhibited by z-LEHD-fink in dose-dependent manner
- cleavage of pro-caspase-3 and PARP ([10]; 2 hours preincubation with z-LEHD-fmk, then 3 μM etoposide 16 hours, FIG. 18): significantly reduced
- etoposide-induced 32 kDa DR5 band [10, 19]: no longer detectable
- etoposide-induced increase in the 58 kDa DR5 band [10, 19]: significantly attenuated
